Source: patent US10815230B2, “Casein kinase 1 delta inhibitor” (ELECTROPHORETICS LIMITED, priority 2015, dated 2020)

How the values were obtained:
[1] = target: ADCK3 (Homo sapiens, UniProt Q8NI60); test: KINOMEscan binding assay; conditions: read-out: % Ctrl @ 10000 nM
[2] = target: BLK (Homo sapiens, UniProt P51451); test: KINOMEscan binding assay; conditions: read-out: % Ctrl @ 10000 nM
[3] = target: CSF1R-autoinhibited (Homo sapiens, UniProt P07333); test: KINOMEscan binding assay; conditions: read-out: % Ctrl @ 10000 nM
Chain of CSF1R-autoinhibited (P07333 539-972 limits assumed): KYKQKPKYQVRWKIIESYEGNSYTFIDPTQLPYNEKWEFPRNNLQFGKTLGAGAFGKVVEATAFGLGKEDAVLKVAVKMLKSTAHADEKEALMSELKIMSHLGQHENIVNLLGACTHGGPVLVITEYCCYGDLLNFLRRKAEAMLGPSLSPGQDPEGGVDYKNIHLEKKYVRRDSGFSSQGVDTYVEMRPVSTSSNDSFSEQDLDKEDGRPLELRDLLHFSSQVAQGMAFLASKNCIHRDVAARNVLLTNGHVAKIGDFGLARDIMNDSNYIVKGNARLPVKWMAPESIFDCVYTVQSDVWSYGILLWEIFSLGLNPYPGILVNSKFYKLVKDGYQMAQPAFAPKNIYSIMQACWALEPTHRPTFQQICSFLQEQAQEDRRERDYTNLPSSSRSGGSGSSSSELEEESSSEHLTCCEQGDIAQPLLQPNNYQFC

[4] = target: CTK (Homo sapiens, UniProt P42679); test: KINOMEscan binding assay; conditions: read-out: % Ctrl @ 10000 nM
Chain of CTK (P42679 whole entry): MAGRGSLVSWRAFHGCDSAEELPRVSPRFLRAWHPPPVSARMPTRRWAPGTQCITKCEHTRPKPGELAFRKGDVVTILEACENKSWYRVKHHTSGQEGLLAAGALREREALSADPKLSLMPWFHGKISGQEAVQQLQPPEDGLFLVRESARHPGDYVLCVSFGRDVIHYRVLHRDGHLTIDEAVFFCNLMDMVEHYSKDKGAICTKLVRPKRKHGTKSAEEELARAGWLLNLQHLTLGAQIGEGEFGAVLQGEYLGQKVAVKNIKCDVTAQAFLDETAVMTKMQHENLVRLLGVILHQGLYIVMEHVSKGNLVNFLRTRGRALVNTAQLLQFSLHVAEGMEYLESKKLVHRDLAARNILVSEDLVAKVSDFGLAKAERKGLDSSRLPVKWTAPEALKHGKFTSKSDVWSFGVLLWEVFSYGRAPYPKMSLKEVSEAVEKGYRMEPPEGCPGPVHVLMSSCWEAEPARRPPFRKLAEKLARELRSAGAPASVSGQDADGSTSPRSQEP

[5] = target: EPHA8 (Homo sapiens, UniProt P29322); test: KINOMEscan binding assay; conditions: read-out: % Ctrl @ 10000 nM
[6] = target: FLT3 (D835H) (Homo sapiens, UniProt P36888, D835H); test: KINOMEscan binding assay; conditions: read-out: % Ctrl @ 10000 nM
[7] = system: FLT3 (ITD); test: KINOMEscan binding assay
[8] = target: GCN2 (Kin.Dom.2, S808G) (Homo sapiens, UniProt Q9P2K8, S808G); test: KINOMEscan binding assay; conditions: read-out: % Ctrl @ 10000 nM
[9] = target: GRK1 (Homo sapiens, UniProt Q15835); test: KINOMEscan binding assay; conditions: read-out: % Ctrl @ 10000 nM
Chain of GRK1 (Q15835 whole entry): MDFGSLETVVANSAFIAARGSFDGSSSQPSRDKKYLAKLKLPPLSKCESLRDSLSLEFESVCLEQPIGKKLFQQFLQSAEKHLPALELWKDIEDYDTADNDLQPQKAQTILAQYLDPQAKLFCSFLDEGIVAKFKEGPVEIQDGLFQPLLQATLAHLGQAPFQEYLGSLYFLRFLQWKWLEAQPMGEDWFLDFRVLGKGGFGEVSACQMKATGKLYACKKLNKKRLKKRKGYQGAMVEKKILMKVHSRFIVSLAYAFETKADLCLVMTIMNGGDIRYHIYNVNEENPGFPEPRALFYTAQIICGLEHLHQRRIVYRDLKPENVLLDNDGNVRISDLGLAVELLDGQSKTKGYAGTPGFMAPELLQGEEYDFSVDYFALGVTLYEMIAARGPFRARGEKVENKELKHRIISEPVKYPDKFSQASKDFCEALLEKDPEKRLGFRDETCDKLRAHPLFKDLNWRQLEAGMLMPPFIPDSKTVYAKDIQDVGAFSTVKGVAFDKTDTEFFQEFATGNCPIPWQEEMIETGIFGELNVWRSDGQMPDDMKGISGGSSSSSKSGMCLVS

[10] = target: GRK7 (Homo sapiens, UniProt Q8WTQ7); test: KINOMEscan binding assay; conditions: read-out: % Ctrl @ 10000 nM
Chain of GRK7 (Q8WTQ7 whole entry): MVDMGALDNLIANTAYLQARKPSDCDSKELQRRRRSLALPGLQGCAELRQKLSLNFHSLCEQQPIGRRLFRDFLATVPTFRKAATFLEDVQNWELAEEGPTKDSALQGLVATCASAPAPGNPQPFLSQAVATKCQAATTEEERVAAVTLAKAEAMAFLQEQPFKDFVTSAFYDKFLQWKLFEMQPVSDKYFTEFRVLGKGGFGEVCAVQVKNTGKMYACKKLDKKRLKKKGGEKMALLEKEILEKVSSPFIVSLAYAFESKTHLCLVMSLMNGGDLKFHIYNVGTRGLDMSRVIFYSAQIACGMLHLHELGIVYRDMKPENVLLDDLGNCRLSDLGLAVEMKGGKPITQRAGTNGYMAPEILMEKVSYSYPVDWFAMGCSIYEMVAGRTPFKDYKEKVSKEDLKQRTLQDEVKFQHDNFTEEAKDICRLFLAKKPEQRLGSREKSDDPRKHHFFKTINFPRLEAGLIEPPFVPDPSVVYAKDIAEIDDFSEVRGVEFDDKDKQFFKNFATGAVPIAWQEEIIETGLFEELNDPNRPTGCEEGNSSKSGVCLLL

[11] = target: IKK-beta (Homo sapiens, UniProt O14920); test: KINOMEscan binding assay; conditions: read-out: % Ctrl @ 10000 nM
[12] = target: JNK3 (Homo sapiens, UniProt P53779); test: KINOMEscan binding assay; conditions: read-out: % Ctrl @ 10000 nM
[13] = target: KIT (D816V) (Homo sapiens, UniProt P10721, D816V); test: KINOMEscan binding assay; conditions: read-out: % Ctrl @ 10000 nM
[14] = target: T1, MAPKAPK5 (Homo sapiens, UniProt Q8IW41); test: KINOMEscan binding assay; conditions: read-out: % Ctrl @ 10000 nM
T1 construct: T7 phage fusion (most assays) or DNA label after HEK293 expression; purchased DiscoveRx (KINOMEscan, LeadHunter Discovery services); host or cells: T7 phage in E. coli (BL21-derived) or HEK293

[15] = target: MINK (Homo sapiens, UniProt Q8N4C8); test: KINOMEscan binding assay; conditions: read-out: % Ctrl @ 10000 nM
Chain of MINK (Q8N4C8 whole entry): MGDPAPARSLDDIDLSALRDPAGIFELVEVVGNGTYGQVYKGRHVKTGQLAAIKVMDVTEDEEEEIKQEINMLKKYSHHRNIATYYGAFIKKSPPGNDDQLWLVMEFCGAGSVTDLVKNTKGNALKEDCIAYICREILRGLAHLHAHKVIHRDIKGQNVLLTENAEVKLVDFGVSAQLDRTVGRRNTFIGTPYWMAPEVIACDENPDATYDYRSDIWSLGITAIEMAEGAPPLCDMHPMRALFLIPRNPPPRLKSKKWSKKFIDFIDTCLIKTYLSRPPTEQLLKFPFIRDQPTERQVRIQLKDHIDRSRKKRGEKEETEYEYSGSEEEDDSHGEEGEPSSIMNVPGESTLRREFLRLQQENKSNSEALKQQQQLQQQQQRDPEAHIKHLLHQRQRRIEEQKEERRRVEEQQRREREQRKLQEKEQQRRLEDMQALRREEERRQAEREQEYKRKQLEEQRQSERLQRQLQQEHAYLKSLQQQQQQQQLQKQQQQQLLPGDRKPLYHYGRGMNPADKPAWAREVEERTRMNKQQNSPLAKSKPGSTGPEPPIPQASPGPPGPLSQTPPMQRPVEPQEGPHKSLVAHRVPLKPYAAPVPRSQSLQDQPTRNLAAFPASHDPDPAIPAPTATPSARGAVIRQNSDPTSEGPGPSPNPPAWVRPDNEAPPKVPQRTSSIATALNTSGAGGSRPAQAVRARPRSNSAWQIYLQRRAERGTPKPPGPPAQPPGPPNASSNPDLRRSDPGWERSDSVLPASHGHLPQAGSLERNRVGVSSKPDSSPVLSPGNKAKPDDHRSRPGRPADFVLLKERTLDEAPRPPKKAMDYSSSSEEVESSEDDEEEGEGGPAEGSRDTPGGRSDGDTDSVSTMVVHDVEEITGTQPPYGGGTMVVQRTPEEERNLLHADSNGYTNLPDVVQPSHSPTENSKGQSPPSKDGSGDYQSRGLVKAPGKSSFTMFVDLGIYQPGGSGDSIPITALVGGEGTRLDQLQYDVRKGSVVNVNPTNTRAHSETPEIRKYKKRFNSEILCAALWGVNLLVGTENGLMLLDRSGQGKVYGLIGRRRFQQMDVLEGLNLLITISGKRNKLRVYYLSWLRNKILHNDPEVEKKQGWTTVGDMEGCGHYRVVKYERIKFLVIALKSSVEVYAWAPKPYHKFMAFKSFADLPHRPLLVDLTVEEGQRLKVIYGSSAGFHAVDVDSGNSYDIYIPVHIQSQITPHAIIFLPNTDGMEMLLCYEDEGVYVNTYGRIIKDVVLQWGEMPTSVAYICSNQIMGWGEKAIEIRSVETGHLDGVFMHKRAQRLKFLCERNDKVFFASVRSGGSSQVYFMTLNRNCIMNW

[16] = target: NEK10 (Homo sapiens, UniProt Q6ZWH5); test: KINOMEscan binding assay; conditions: read-out: % Ctrl @ 10000 nM
[17] = target: PAK6 (Homo sapiens, UniProt Q9NQU5); test: KINOMEscan binding assay; conditions: read-out: % Ctrl @ 10000 nM
[18] = target: PHKG1 (Homo sapiens, UniProt Q16816); test: KINOMEscan binding assay; conditions: read-out: % Ctrl @ 10000 nM
[19] = target: RSK3 Kin.Dom.1-N-terminal (Homo sapiens, UniProt Q15349); test: KINOMEscan binding assay; conditions: read-out: % Ctrl @ 10000 nM
[20] = target: SGK (Homo sapiens, UniProt O00141); test: KINOMEscan binding assay; conditions: read-out: % Ctrl @ 10000 nM
Chain of SGK (O00141 whole entry): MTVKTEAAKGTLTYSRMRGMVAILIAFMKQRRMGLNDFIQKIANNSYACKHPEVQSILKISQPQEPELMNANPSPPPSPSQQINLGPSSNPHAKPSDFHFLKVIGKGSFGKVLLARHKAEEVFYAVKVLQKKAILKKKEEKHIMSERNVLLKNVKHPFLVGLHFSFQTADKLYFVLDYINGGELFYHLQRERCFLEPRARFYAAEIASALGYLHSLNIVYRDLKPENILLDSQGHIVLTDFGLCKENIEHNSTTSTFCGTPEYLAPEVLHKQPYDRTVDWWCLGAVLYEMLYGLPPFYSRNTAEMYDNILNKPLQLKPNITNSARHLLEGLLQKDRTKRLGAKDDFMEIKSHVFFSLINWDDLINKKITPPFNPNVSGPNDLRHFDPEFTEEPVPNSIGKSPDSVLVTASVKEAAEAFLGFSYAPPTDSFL

[21] = target: T2, YANK3 (Homo sapiens, UniProt Q86UX6); test: KINOMEscan binding assay; conditions: read-out: % Ctrl @ 10000 nM
T2 construct: purchased DiscoveRx (KINOMEscan, LeadHunter Discovery services)

[22] = system: non-mutant kinases; test: KINOMEscan kinase screening panel, binding capacity and Selectivity Score; conditions: 10 μM, 395 non-mutant kinases
Experimental: The assay was carried out according to the established KINOMEscan® technology (DiscoveRx® LeadHunter®, Discovery services, www.discoverx.com). […] Screening “hits” are identified by measuring the amount of kinase captured in test versus control samples by using a quantitative, qPCR method that detects an associated DNA label. For most assays, kinase-tagged T7 phage strains ware grown in parallel in 24-well blocks in an E. coli host derived from the BL21 strain. E. coli were grown to log-phase and infected with T7 phage from a frozen stock (multiplicity of infection=0.4) and incubated with shading at 32° C. until lysis (90-150 minutes). The lysates were centrifuged (6,000×g) and filtered (0.2 μm) to remove cell debris. The remaining kinases were produced in HEK293 cells and subsequently tagged with DMA for qPCR detection. Streptavidin-coated magnetic beads were treated with biotinylated small molecule ligands for 30 minutes at room temperature to generate affinity resins for kinase assays. The liganded beads were blocked with excess biotin and washed with blocking buffer (SeaBlock (Pierce), 1% BSA, 0.05 % Tween 20, 1 mM DTT) to remove unbound ligand and to reduce non-specific phage binding. […] All reactions were performed in polypropylene 384-well plates in a final volume of 0.04 ml. The assay plates were incubated at room temperature with shaking for 1 hour and the affinity beads were washed with wash buffer (1×PBS, 0.05% Tween 20). The beads were then re-suspended in elution buffer (1×PBS, 0.05 % Tween 20, 0.5 μM non-biotinylated affinity ligand) and incubated at room temperature with shaking for 30 minutes. The kinase concentration in the eluates was measured by qPCR.
Results were reported as “% Ctrl”, where lower numbers indicate stronger hits. The calculation of the “% Ctrl” was as follow:
In addition to the binding capacity, the Selectivity Score (or S-score) was calculated (Karaman, M. W. et al. A quantitative analysis of kinase inhibitor selectivity. Nat. Biotechnol. 26, 127-132 (2008). The S-score is a quantitative measure of compound selectivity. It is calculated by dividing the number of kinases that a compound binds to by the total number of distinct kinases tested, excluding mutant variants. S-score−Number of hits/Number of assays
S(35)=(number of non-mutant kinases with % Ctrl<35)/(number of non-mutant kinases tested)
S(10)=(number of non-mutant kinases with % Ctrl<10)/(number of non-mutant kinases tested)
S(1)=(number of non-mutant kinases with % Ctrl<1)/(number of non-mutant kinases tested)
and provides a quantitative method of describing compound selectivity to facilitate comparison of different compounds. The screening concentration was 10 μM.

Chain of ADCK3 (Q8NI60 163-647): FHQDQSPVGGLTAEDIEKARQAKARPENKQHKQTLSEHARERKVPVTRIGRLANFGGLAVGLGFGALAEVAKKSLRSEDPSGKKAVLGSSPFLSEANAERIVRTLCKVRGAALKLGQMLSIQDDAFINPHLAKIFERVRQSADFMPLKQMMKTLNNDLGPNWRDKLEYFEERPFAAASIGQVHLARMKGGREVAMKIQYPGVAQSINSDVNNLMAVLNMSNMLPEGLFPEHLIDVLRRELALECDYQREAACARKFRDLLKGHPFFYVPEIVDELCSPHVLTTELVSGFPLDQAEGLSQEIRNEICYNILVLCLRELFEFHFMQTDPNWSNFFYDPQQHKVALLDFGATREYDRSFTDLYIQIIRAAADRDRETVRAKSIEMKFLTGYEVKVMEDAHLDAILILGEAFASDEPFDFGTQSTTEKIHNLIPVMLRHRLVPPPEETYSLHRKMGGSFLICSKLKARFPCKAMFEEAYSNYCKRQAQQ
Chain of BLK (P51451 whole entry): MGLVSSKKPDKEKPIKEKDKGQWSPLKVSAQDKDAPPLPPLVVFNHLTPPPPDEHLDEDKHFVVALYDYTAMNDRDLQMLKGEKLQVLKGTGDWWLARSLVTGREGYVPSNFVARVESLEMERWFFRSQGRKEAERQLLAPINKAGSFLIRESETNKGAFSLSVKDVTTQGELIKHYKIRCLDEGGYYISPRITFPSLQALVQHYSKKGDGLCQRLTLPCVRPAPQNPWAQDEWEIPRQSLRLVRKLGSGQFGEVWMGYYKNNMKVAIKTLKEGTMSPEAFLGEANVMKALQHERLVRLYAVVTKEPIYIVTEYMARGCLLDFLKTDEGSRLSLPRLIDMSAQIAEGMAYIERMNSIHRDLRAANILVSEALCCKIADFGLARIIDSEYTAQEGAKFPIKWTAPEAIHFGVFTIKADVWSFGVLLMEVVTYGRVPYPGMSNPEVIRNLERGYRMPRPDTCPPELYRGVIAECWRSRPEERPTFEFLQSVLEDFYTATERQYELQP

Row | SMILES | remaining binding at 10 µM [1] [%] | remaining binding at 10 µM [2] [%] | remaining binding at 10 µM [3] [%] | remaining binding at 10 µM [4] [%] | remaining binding at 10 µM [5] [%] | remaining binding at 10 µM [6] [%] | remaining binding at 10 µM [8] [%] | remaining binding at 10 µM [9] [%] | remaining binding at 10 µM [10] [%] | remaining binding at 10 µM [11] [%] | remaining binding at 10 µM [12] [%] | remaining binding at 10 µM [13] [%] | remaining binding at 10 µM [14] [%] | remaining binding at 10 µM [15] [%] | remaining binding at 10 µM [16] [%] | remaining binding at 10 µM [17] [%] | remaining binding at 10 µM [18] [%] | remaining binding at 10 µM [19] [%] | remaining binding at 10 µM [20] [%] | remaining binding at 10 µM [21] [%] | further results
1 | Nc1ncc(-c2nc3ccccc3o2)c(-c2ccncc2)n1 [Comparative Compound 324, 5-(1,3-benzoxazol-2-yl)-4-(pyridine-4-yl)pyrimidin-2-amine] | 88 | 80 | 70 | 100 | 94 | 68 | 98 | 68 | 91 | 99 | 6 | 91 | 100 | 56 | 56 | 100 | 100 | 100 | 100 | 97 | % Ctrl @ 10000 nM [7]: 85 % Ctrl; Number of Hits S (1) ([22]; % Ctrl<1): 0; S-score S (1) ([22]; % Ctrl<1): 0; Number of Hits S (10) ([22]; % Ctrl<10): 4; S-score S (10) ([22]; % Ctrl<10): 0.01; Number of Hits S (35) ([22]; % Ctrl<35): 8; S-score S (35) ([22]; % Ctrl<35): 0.02
2 | CNc1c(C(N)=O)c2ccccn2c1C(=O)c1ccc(F)cc1 [Compound A, 2-methyl-amino-3-[(4-fluorophenyl)carbonyl]indolizine-1-carboxamide] | 91 | 49 | 100 | 100 | 59 | 60 | 66 | 53 | 65 | 90 | 48 | 71 | 100 | 57 | 100 | 86 | 97 | 83 | 100 | 100 | 
